# Experiments:
# anti-MT mAb = experiment: indirect competitive ELISA (icELISA) with anti-MT monoclonal antibody; assay type: binding, mouse; conditions: for CR (%): CR = (IC50 of MT/IC50 of competition analogue) x 100%
# Protocol: (§1) Checkerboard titration was used for the determination of optimum coating antigen and antibody concentrations in icELISA. A 96-well microplate was coated with 100 μL/well MT-CMO-OVA (0.1 μg/mL, in 0.05 M CBS, pH 9.6) and incubated overnight at 4 °C. The wells were washed three times with washing buffer (0.01 M, PBS, containing 0.2% Tween 20) to remove free coating antigen and blocked with 220 μL blocking buffer (0.05 M, 0.2% Gelatin in CBS) at 37 °C for 2 h.
# After washing, 50 μL of different concentrations of standard and 50 μL of antibody were added to wells and incubated at 37 °C for 30 min. Following another wash to remove unbound antibody and standards, 100 μL of 1:3000 diluted HRP-labelled goat anti-mouse IgG was added to each well and incubated for 30 min at 37 °C. After washing three times, 100 μL of substrate was added and incubated for 15 min at 37 °C. The enzymatic reaction was stopped with 50 μL sulfuric acid (2 M) per well. A microplate reader was used to determine the absorbance of each well at 450 nm.
# Three immunoassay parameters (methanol content, ionic strength and pH of the solvent) were optimized to improve both the stability and sensitivity of icELISA. The criteria used to evaluate immunoassay performance were half inhibition concentration (IC50), maximum absorbance (Amax) and Amax/IC50. To optimize the methanol content in the solvent, PBS was mixed with different contents of methanol (0%, 5%, 10% and 20%). For ionic strength optimization, different concentrations of PBS (5, 10, 20, and 40 mM) were used. Finally, for solvent pH optimization, PBS was adjusted to different pH values (4.7–9.6).
# In this study, mAb specificity was investigated by cross-reactivity (CR). Competition analogues (testosterone, nor-testosterone, estradiol, estriol, progesterone, epitestosterone, dihydrotestosterone and dexamethasone) were prepared in methanol at 1 mg/mL. A series of standard solutions (0, 1, 2, 5, 10, 20, 50 and 100 ng/mL) were diluted with optimized PBS and subjected to icELISA. CR values were calculated with the following formula: CR (%) = (IC50 of MT/IC50 of competition analogue) × 100%
# [1] = tested on: antisera (mouse No. 16), anti-MT activity; experiment: icELISA screening of mouse antiserum for anti-MT activity; assay type: binding; conditions: mouse No. 16, after two subsequent injections, MT in PBS
# Protocol: Female BALB/c mice (8–10 weeks old) were injected subcutaneously at multiple sites with the immunogen MT-CMO-BSA (100 μg in 0.1 mL saline) emulsified with an equal volume of Freund’s complete adjuvant. For subsequent boosters administered at one-month intervals, Freund’s incomplete adjuvant was used. Antisera were collected following the third booster immunization and screened for anti-MT activity by icELISA [27]. The mouse with the highest anti-MT activity was administered the immunogen (20 μg in 0.2 mL saline) by intraperitoneal injection and sacrificed three days later for cell fusion.
# as §1
# After washing, 50 μL of different concentrations of standard and 50 μL of antibody were added to wells and incubated at 37 °C for 30 min. […] A microplate reader was used to determine the absorbance of each well at 450 nm.
# [2] = optimized icELISA, PBS 10 mM, pH 7.4
smiles,measurement,setting,value
C[C@]12CCC(=O)C[C@@H]1CC[C@@H]1[C@@H]2CC[C@]2(C)[C@@H](O)CC[C@@H]12 [Dihydrotestosterone],CR (%),anti-MT mAb,<0.26%
same,IC50,anti-MT mAb; [2],>100 ng/mL
C[C@]12CCC(=O)C=C1CC[C@@H]1[C@@H]2CC[C@@]2(C)[C@H]1CC[C@]2(C)O [Methyltestosterone],CR (%),anti-MT mAb,100%
same,IC50,anti-MT mAb; ionic strength (PBS) 5 mM,0.68 ± 0.017 ng/mL
same,IC50,anti-MT mAb; ionic strength (PBS) 10 mM,0.398 ± 0.024 ng/mL
same,IC50,anti-MT mAb; ionic strength (PBS) 20 mM,0.565 ± 0.024 ng/mL
same,IC50,anti-MT mAb; ionic strength (PBS) 40 mM,0.504 ± 0.092 ng/mL
same,IC50,anti-MT mAb; methanol content 0%,0.418 ± 0.02 ng/mL
same,IC50,anti-MT mAb; methanol content 5%,0.567 ± 0.023 ng/mL
same,IC50,anti-MT mAb; methanol content 10%,0.418 ± 0.05 ng/mL
same,IC50,anti-MT mAb; methanol content 20%,0.626 ± 0.009 ng/mL
same,IC50,anti-MT mAb; [2],0.26 ng/mL
same,IC50,anti-MT mAb; pH 4.7,0.456 ng/mL
same,IC50,anti-MT mAb; pH 6.0,0.723 ± 0.038 ng/mL
same,IC50,anti-MT mAb; pH 7.4,0.455 ng/mL
same,IC50,anti-MT mAb; pH 8.6,0.577 ± 0.026 ng/mL
same,IC50,anti-MT mAb; pH 9.6,0.714 ± 0.007 ng/mL
same,IC50 of purified mAb,"anti-MT mAb; purified mAb from hybridoma 1E12, before optimization",0.4 ng/mL
same,IC50 of antiserum,[1],approximately 3 ng/mL
C[C@]12CC[C@@H]3c4ccc(O)cc4CC[C@H]3[C@@H]1CC[C@@H]2O [Estradiol],CR (%),anti-MT mAb,0.52%
same,IC50,anti-MT mAb; [2],50 ng/mL
CC(=O)[C@H]1CC[C@H]2[C@@H]3CCC4=CC(=O)CC[C@]4(C)[C@H]3CC[C@]12C [Progesterone],CR (%),anti-MT mAb,<0.26%
same,IC50,anti-MT mAb; [2],>100 ng/mL
C[C@]12CC[C@H]3[C@@H](CCC4=CC(=O)CC[C@@H]43)[C@@H]1CC[C@@H]2O [Nor-testosterone],CR (%),anti-MT mAb,1.04%
same,IC50,anti-MT mAb; [2],25 ng/mL
C[C@@H]1C[C@H]2[C@@H]3CCC4=CC(=O)C=C[C@]4(C)[C@@]3(F)[C@@H](O)C[C@]2(C)[C@@]1(O)C(=O)CO [Dexamethasone],CR (%),anti-MT mAb,<0.26%
same,IC50,anti-MT mAb; [2],>100 ng/mL
C[C@]12CC[C@H]3[C@@H](CCC4=CC(=O)CC[C@@]43C)[C@@H]1CC[C@@H]2O [Testosterone],IC50,anti-MT mAb; [2],12 ng/mL
C[C@]12CC[C@H]3[C@@H](CCC4=CC(=O)CC[C@@]43C)[C@@H]1CC[C@H]2O [Epitestosterone],CR (%),anti-MT mAb,<0.26%
same,IC50,anti-MT mAb; [2],>100 ng/mL
C[C@]12CC[C@@H]3c4ccc(O)cc4CC[C@H]3[C@@H]1C[C@@H](O)[C@@H]2O [Estriol],CR (%),anti-MT mAb,<0.26%
same,IC50,anti-MT mAb; [2],>100 ng/mL

# Reference: paper PMC4481955, “Sensitive, Fast, and Specific Immunoassays for Methyltestosterone Detection” (Sensors (Basel, Switzerland), 2015)
